Results on 10 compounds are retold here after publication PMC10782483, “Development of the High-Affinity Carborane-Based Cannabinoid Receptor Type 2 PET Ligand [^18F]LUZ5-d8” (Journal of Medicinal Chemistry, 2023).

Data set [1] in a line: chemical stability tests by 1H and 11B{1H} NMR spectroscopy in aqueous DMSO-d6. It counts as physicochemical. The note with it: for chemical stability in aqueous DMSO-d6 (NMR), in words / stability in aqeous DMSO-d6 (1H, 11B{1H}-NMR) / stability versus binding affinity assay time frame: aqueous DMSO-d6; for stability versus binding affinity assay time frame: assay time 90 min. On the procedure: A high chemical and metabolic stability of the compounds is required for biological evaluation and application in vivo. The method of choice for evaluating the chemical stability was ^1H and ^11B{^1H} NMR spectroscopy, with the latter being particularly suitable for recognizing deboronation. Since the in vitro binding assays are performed in aqueous media, the stability tests should be performed under similar conditions. However, due to the high hydrophobicity of the carborane moieties, target compounds 9–11 and 15–17 were not soluble in aqueous solution without the addition of dimethyl sulfoxide (DMSO). Since a maximum of 1% DMSO can be used in the in vitro binding assay, stability measurements were performed in aqueous DMSO-d6 to see especially if deboronation occurs in the presence of water. Approximately 10 mg of each compound (9–11 and 15–17) was dissolved in the deuterated NMR solvent and monitored via NMR spectroscopy in time intervals of a few minutes (after the addition of the solvent to the respective solid compound) to at least 23 days for the o- (9 and 15) and m-carborane derivatives (10 and LUZ5) and beyond one year for the p-carborane analogues (11 and 17) (Figures S68–S79).
Stability tests were performed with ^1H and ^11B{^1H} NMR spectroscopy. Approximately 10 mg of each compound was dissolved in aqueous DMSO-d6 and measured directly thereafter and at increasing time intervals from a few minutes to a couple of days or beyond a year.
The stability of LUZ5 was additionally investigated under the conditions described above, but in the presence of larger amounts of H2O or D2O. For this, LUZ5 was dissolved in DMSO-d6 (0.5 mL) and either H2O (0.1 mL) or D2O (0.1 mL) was added.

The next data set concerns the target T1, human CB2R (Homo sapiens, UniProt P34972).
T1 construct: expressed in transfected cells; host or cells: CHO cells (membrane homogenates)
In words: competitive binding affinity assay, membrane homogenates of hCB2R CHO cells, radioligand [3H]WIN55212-2. The note with it: hCB2R CHO membranes. Here is the method: Target compounds 9–11, 15, LUZ5, and 17 were evaluated in a competitive binding affinity assay using hCB2R Chinese hamster ovary (CHO) cells and the agonistic high-affinity CB2R radioligand [^3H]WIN55212-2 (Figure S96).
(§1) The in vitro binding affinity assays were performed with membrane homogenates from Chinese hamster ovary (CHO) cells stably transfected with the human CB2R according to a previously published protocol.[95] The screening for CB1R binding affinity determination was performed with membrane homogenates from CHO cells stably transfected with the human CB1R as described previously.[96]

The target of the next data set is CB2R. The note with it: reference compound; read-out: KiCB2R; cited from earlier work.
The conditions of data set [2]: cited from earlier work.
For data set [3] the following is noted: rat, in vivo; cited from earlier work.
The subject of data set [4] is mouse liver microsomes (MLMs). The data set can be described thus: in vitro metabolism with mouse liver microsomes and NADPH, HPLC-UV-MS. It counts as in vitro ADME. The note with it: NADPH, similar conditions. (In general: Liver microsomes are vesicles of endoplasmic reticulum, rich in cytochrome P450 enzymes.)
Protocol: Each of the compounds was incubated with mouse liver microsomes (MLMs) in phosphate-buffered saline (PBS) in the presence of nicotinamide adenine dinucleotide phosphate (NADPH) for 30 and 60 min at 37 °C, according to a literature protocol.[81],[82] After the addition of cold acetonitrile, the obtained supernatants were analyzed by HPLC-UV-MS (exemplified chromatogram and spectrum in Figures S91 and S92). […] In addition, negative control samples without NADPH or without NADPH and MLM were prepared and analyzed for each target compound.
For in vitro evaluation of metabolites, the following instruments were used: BioShake iQ (QUANTIFOIL Instruments, Jena, Germany), Centrifuge 5424 (Eppendorf, Hamburg, Germany), UltiMate 3000 UHPLC System (Thermo Scientific, Germering, Germany) including a DAD detector (DAD-3000RS) coupled to an MSQ Plus single quadrupole mass spectrometer (Thermo Scientific, Austin, TX). […] In brief, each of the test compounds (dissolved in DMSO, final concentration of 10 μM, final DMSO percentage of 1%) and MLMs (final protein concentration of 1 mg/mL) in PBS (pH 7.4) were preincubated in PBS (pH 7.4) for 5 min at 37 °C. Similarly preincubated NADPH (final concentration of 2 mM) was added to start the incubation. […] The supernatants were stored at 4 °C until they were measured by HPLC-UV-MS. […]
For the next data set, the target named is T2, human CB1R (Homo sapiens, UniProt P21554).
T2 construct: expressed in transfected cells; host or cells: CHO cells (membrane homogenates)
T2 sequence (P21554 whole entry): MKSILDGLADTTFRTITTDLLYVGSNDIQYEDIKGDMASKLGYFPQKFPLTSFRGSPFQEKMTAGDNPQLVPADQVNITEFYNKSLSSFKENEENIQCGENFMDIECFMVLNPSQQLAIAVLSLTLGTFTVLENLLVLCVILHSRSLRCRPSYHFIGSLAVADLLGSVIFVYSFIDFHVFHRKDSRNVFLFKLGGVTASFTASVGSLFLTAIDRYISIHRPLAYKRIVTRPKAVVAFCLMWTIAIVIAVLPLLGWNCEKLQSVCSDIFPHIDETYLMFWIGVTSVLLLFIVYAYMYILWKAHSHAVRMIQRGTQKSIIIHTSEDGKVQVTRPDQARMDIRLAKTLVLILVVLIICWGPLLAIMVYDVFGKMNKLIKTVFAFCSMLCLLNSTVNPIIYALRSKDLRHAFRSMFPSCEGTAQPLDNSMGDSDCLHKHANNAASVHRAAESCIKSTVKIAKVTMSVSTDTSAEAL
In words: CB1R binding affinity screening, membrane homogenates of CHO cells with human CB1R, radioligand [3H]SR141716A. The note with it: human CB1R CHO membranes. On the procedure: as §1

Setting [5] is: individual values behind the mean, read-out: KiCB2R individual values.

“And” between values parts separate entries of the source, which are not always exact repeats. Identical values can stand only once. “Also recorded” adds a separate entry of the source. Like-named read-outs stand apart in the source and are kept apart here.

T1 sequence (P34972 whole entry): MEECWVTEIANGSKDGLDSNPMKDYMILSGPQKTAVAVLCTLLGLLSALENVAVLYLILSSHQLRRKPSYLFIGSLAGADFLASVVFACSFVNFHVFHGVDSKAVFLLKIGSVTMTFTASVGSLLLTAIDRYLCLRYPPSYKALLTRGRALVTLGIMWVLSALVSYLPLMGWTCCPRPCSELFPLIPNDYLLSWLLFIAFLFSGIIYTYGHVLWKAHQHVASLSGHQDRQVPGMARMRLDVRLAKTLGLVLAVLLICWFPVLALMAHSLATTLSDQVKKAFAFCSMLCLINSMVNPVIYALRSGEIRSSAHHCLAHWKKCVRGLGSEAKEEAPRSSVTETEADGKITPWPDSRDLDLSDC

Turning to “1-(4-Fluorobutyl)-2-oxo-N-(1,2-dicarba-closo-dodecaboranyl)-1,2-dihydro-1,8-naphthyridine-3-carboxamide [Compound 9]”, in data set [1], the “chemical stability in aqueous DMSO-d6 (NMR), in words” value (shortened to “chemical stability in aqueous DMSO-d6”) is “additional signals were visible already after 2 h”; the “stability in aqeous DMSO-d6 (1H, 11B{1H}-NMR)” value (from here on “stability in aqeous DMSO-d6”) was below 0.083 days; the “stability versus binding affinity assay time frame” value was “too low”. In addition, the Ki at human CB2R (mean, read-out: KiCB2R mean) is 40.8 nM.

As to “1-(4-Fluorobutyl)-2-oxo-N-(1,7-dicarba-closo-dodecaboranyl)-1,2-dihydro-1,8-naphthyridine-3-carboxamide [Compound 10]”, in data set [1], the “stability in aqeous DMSO-d6” value is below 8 days and the “stability versus binding affinity assay time frame” value is “stability beyond the binding affinity assay time frame”. The Ki at human CB2R (setting [5]) is 43.8 nM and 26.9 nM. In addition, at human CB2R (mean, read-out: KiCB2R mean), the Ki worked out at 35.4 nM.

Turning to “1-(4-Fluorobutyl)-2-oxo-N-(1,7-dicarba-closo-dodecaboranyl)-1,2-dihydro-1,8-naphthyridine-3-carboxamide [Compound 11]”, in data set [1], the “chemical stability in aqueous DMSO-d6” value is on record as “stable for more than one year; also recorded: good chemical stability”; the “stability in aqeous DMSO-d6” value was “? 491 d”; the “stability versus binding affinity assay time frame” value is on record as “stability beyond the binding affinity assay time frame”. The Ki on human CB2R (setting [5]) is 2.77 nM and 5.01 nM. Further, the Ki on human CB2R (mean, read-out: KiCB2R mean) was 3.9 nM.

Consider `O=C(NC12CC3CC(CC(C3)C1)C2)c1cc2cccnc2n(CCCCF)c1=O` [LU13], for which the Ki on CB2R was 0.6 nM.

With `Cc1s/c(=N\C(=O)C2C(C)(C)C2(C)C)n(CCCC[18F])c1C` [[^18F]3], the “intact radioligand in brain” value in data set [2] (brain samples) was 36%. The “intact radiotracer in plasma” value in data set [2] (mouse, in vivo) is 7%.

In the case of `Cc1s/c(=N\C(=O)C2C(C)(C)C2(C)C)n(CCOCC[18F])c1C` [[^18F]4], the “intact radiotracer in plasma” value in data set [3] is reported as 25%.

In the case of `C[C@]12CC[C@H]3[C@@H](CCC4=CC(=O)CC[C@@]43C)[C@@H]1CC[C@@H]2O` [testosterone], in data set [4], the “conversion of positive control” value is “complete conversion”.

As to “(Z)-N-[3-(4-Fluorobutyl)-4,5-dimethylthiazole-2(3H)-ylidene]-(1,2-dicarba-closo-dodecaboranyl)-carboxamide [Compound 15]”, in data set [1], the “chemical stability in aqueous DMSO-d6” value is “good chemical stability”; the “stability in aqeous DMSO-d6” value is below 3 days; the “stability versus binding affinity assay time frame” value was “stability beyond the binding affinity assay time frame”. The Ki on human CB2R (setting [5]) is 3.28 nM and 3.26 nM. Moreover, the Ki at human CB2R (mean, read-out: KiCB2R mean) is 3.3 nM.

On to “(Z)-N-[3-(4-Fluorobutyl)-4,5-dimethylthiazole-2(3H)-ylidene]-(1,7-dicarba-closo-dodecaboranyl)-carboxamide [LUZ5]”, for which, in data set [1] (D2O in DMSO-d6 1:5 (v/v), 11B{1H} NMR), the “stable in DMSO-d6 with increased amounts of D2O” value is “at least 8 days”. Moreover, in data set [1] (H2O in DMSO-d6 1:5 (v/v), 11B{1H} NMR), the “stable in DMSO-d6 with increased amounts of H2O” value is “at least 19 days”. The “stability in aqeous DMSO-d6” value in data set [1] is listed as “? 23 d”. In addition, in data set [1], the “stability versus binding affinity assay time frame” value is reported as “stability beyond the binding affinity assay time frame”. Further, the Ki on human CB2R (mean, read-out: KiCB2R mean) is 0.8 nM; at human CB1R, above 10000 nM.

On to “(Z)-N-[3-(4-Fluorobutyl)-4,5-dimethylthiazole-2(3H)-ylidene]-(1,12-dicarba-closo-dodecaboranyl)-carboxamide [Compound 17]”, for which, in data set [1], the “chemical stability in aqueous DMSO-d6” value was “stable for more than one year; also recorded: good chemical stability”; the “stability in aqeous DMSO-d6” value was “? 491 d”; the “stability versus binding affinity assay time frame” value was “stability beyond the binding affinity assay time frame”. Further, on human CB2R (setting [5]), the Ki was 1.36 nM and 1.17 nM. Moreover, at human CB2R (mean, read-out: KiCB2R mean), the Ki worked out at 1.3 nM.
